From ChEMBL document CHEMBL5120836, “Discovery of novel 7,8-dihydropteridine-6(5H)-one-based DNA-PK inhibitors as potential anticancer agents via scaffold hopping strategy” (Eur J Med Chem, 2022) come the findings set out here.

Data set [1] has as its system HCT-116. The experiment in a line: Synergistic antiproliferative activity against human HCT-116 cells assessed as combination index at 1 uM in presence of 100 nM doxorubicin by MTT assay. The class given is functional.
The subject of data set [2] is HL-60. The experiment in a line: Synergistic antitumor activity against human HL-60 cells xenografted in BALB/c nude mouse assessed as tumor weight at 100 mg/kg, po qd for 16 days co-administered with doxorubicin (reference value: 27.9%). The class given is functional. As to conditions: HL-60, 384 h, time 16 day.
Data set [3] has as its system HCT-116. The experiment in a line: Induction of apoptosis in human HCT-116 cells assessed as early apoptotic cells at 1 uM incubated for 24 hrs in presence of 100 nM doxorubicin by AnnexinV-FITC/PI staining based flow cytometry (reference value: 3.04%). The class given is functional.
Data set [4] in a line: Lipophilicity, logP of the compound. The class given is physicochemical. The settings on record: octanol/water.
Data set [5] can be described thus: Plasma protein binding in human assessed as free fraction. It counts as ADME, cell-free.
A short description of data set [6]: Tmax in Sprague-Dawley rat at 5 mg/kg, po. It counts as ADME, organism-based. The settings on record: in vivo.
For data set [7], the system named is HCT-116. The experiment in a line: Antiproliferative activity against human HCT-116 cells assessed as inhibition of cell growth incubated for 48 hrs by MTT assay. It counts as functional, cell-based. The settings on record: HCT-116, 48 h.
In data set [8] the test system is HCT-116. The experiment in a line: Induction of apoptosis in human HCT-116 cells assessed as necrotic cells at 1 uM incubated for 24 hrs in presence of 100 nM doxorubicin by AnnexinV-FITC/PI staining based flow cytometry (reference value: 0.031%). The class given is functional.
Data set [9] deals with HL-60. The experiment in a line: Synergistic antitumor activity against human HL-60 cells xenografted in BALB/c nude mouse assessed as tumor volume at 100 mg/kg, po qd for 16 days co-administered with doxorubicin (reference value: 32.2%). It counts as functional. As to conditions: HL-60, 384 h, time 16 day.
In data set [10] the test system is HCT-116. Put plainly: Induction of cell cycle arrest in human HCT-116 cells assessed as increase in accumulation of cells at […] at 1 uM incubated for 24 hrs in presence of 100 nM doxorubicin by PI staining based flow cytometry. The class given is functional.
A short description of data set [11]: Kinetic solubility of the compound in phosphate-buffered solution at pH 7.4 incubated for 24 hrs by HPLC-MS/MS analysis. As to conditions: phosphate buffer, read-out: Kinetic_solubility. The class given is physicochemical.
Data set [12] in a line: AUC (0 to infinity) in Sprague-Dawley rat at 5 mg/kg, po. The settings on record: in vivo. It counts as ADME, organism-based. Details: time infinity, dose 5 mg/kg, route po.
In data set [13] the test system is HCT-116. The experiment in a line: Induction of apoptosis in human HCT-116 cells assessed as late apoptotic cells at 1 uM incubated for 24 hrs by AnnexinV-FITC/PI staining based flow cytometry (reference value: 3.07%). It counts as functional.
In data set [14] the test system is HCT-116. The experiment in a line: Induction of apoptosis in human HCT-116 cells assessed as necrotic cells at 1 uM incubated for 24 hrs by AnnexinV-FITC/PI staining based flow cytometry (reference value: 0.031%). It counts as functional.
For data set [15], the system named is HCT-116. The experiment in a line: Antiproliferative activity against human HCT-116 cells assessed as inhibition of cell growth incubated for 48 hrs in presence of 100 nM doxorubicin by MTT assay. The settings on record: HCT-116, 48 h. The class given is functional, cell-based.
The subject of data set [16] is HCT-116. The experiment in a line: Induction of apoptosis in human HCT-116 cells assessed as viable cells at 1 uM incubated for 24 hrs by AnnexinV-FITC/PI staining based flow cytometry (reference value: 93.9%). The class given is functional. The settings on record: read-out: Activity.
The nature of data set [17]: Toxicity in BALB/c nude mouse xenografted with human HL-60 cells assessed as effect on body weight at 100 mg/kg, po qd for 16 days. It counts as organism-based. As to conditions: in vivo, 384 h, time 16 day.
Data set [18] in a line: Toxicity in BALB/c nude mouse xenografted with human HL-60 cells assessed as effect on body weight at 100 mg/kg, po qd for 16 days co-administered with doxorubicin. It counts as organism-based. The settings on record: in vivo, 384 h, time 16 day.
Data set [19] relates to HCT-116. Put plainly: Induction of apoptosis in human HCT-116 cells assessed as early apoptotic cells at 1 uM incubated for 24 hrs by AnnexinV-FITC/PI staining based flow cytometry (reference value: 3.04%). The class given is functional.
Data set [20] can be described thus: Kinetic solubility of the compound in phosphate-buffered solution at pH 6.4 incubated for 24 hrs by HPLC-MS/MS analysis. The class given is physicochemical. As to conditions: phosphate buffer, read-out: Kinetic_solubility.
A short description of data set [21]: Cmax in Sprague-Dawley rat at 5 mg/kg, po. The class given is ADME, organism-based. Also noted: dose 5 mg/kg, route po. As to conditions: in vivo.
The nature of data set [22]: Plasma protein binding in rat assessed as free fraction. It counts as ADME, cell-free.
For data set [23], the system named is HCT-116. The experiment in a line: Induction of apoptosis in human HCT-116 cells assessed as late apoptotic cells at 1 uM incubated for 24 hrs in presence of 100 nM doxorubicin by AnnexinV-FITC/PI staining based flow cytometry (reference value: 3.07%). The class given is functional.
The subject of data set [24] is HCT-116. The experiment in a line: Induction of apoptosis in human HCT-116 cells assessed as viable cells at 1 uM incubated for 24 hrs in presence of 100 nM doxorubicin by AnnexinV-FITC/PI staining based flow cytometry (reference value: 93.9%). The class given is functional. As to conditions: read-out: Activity.
Data set [25] deals with HCT-116. Put plainly: Induction of cell cycle arrest in human HCT-116 cells assessed as increase in accumulation of cells at G2/M phase at 1 uM incubated for 24 hrs in presence of 100 nM doxorubicin by PI staining based flow cytometry. The class given is functional.
Data set [26] can be described thus: MRT (0 to infinity) in Sprague-Dawley rat at 5 mg/kg, po. The class given is ADME, organism-based. As to conditions: in vivo.
Data set [27] concerns HCT-116. Put plainly: Disruption of mitochondrial function in human HCT-116 cells assessed as decrease in mitochondrial membrane potential by measuring proportion of cells with green fluorescence at 1 uM incubated for 24 hrs by JC-1 staining based flow cytometry (reference value: 0.566%). The class given is functional. Also noted: scale not given: the % may be the effect or the level left.

Data set [28] relates to HCT-116. Put plainly: Disruption of mitochondrial function in human HCT-116 cells assessed as decrease in mitochondrial membrane potential by measuring proportion of cells with red fluorescence at 1 uM incubated for 24 hrs by JC-1 staining based flow cytometry (reference value: 99.4%). It counts as functional. Also noted: scale not given: the % may be the effect or the level left.

In data set [29] the target is DNA-dependent protein kinase catalytic subunit (Homo sapiens, UniProt P78527). Put plainly: Inhibition of human native full length DNA-PK by ADP-Glo assay.
Sequence of DNA-dependent protein kinase catalytic subunit (P78527 whole entry): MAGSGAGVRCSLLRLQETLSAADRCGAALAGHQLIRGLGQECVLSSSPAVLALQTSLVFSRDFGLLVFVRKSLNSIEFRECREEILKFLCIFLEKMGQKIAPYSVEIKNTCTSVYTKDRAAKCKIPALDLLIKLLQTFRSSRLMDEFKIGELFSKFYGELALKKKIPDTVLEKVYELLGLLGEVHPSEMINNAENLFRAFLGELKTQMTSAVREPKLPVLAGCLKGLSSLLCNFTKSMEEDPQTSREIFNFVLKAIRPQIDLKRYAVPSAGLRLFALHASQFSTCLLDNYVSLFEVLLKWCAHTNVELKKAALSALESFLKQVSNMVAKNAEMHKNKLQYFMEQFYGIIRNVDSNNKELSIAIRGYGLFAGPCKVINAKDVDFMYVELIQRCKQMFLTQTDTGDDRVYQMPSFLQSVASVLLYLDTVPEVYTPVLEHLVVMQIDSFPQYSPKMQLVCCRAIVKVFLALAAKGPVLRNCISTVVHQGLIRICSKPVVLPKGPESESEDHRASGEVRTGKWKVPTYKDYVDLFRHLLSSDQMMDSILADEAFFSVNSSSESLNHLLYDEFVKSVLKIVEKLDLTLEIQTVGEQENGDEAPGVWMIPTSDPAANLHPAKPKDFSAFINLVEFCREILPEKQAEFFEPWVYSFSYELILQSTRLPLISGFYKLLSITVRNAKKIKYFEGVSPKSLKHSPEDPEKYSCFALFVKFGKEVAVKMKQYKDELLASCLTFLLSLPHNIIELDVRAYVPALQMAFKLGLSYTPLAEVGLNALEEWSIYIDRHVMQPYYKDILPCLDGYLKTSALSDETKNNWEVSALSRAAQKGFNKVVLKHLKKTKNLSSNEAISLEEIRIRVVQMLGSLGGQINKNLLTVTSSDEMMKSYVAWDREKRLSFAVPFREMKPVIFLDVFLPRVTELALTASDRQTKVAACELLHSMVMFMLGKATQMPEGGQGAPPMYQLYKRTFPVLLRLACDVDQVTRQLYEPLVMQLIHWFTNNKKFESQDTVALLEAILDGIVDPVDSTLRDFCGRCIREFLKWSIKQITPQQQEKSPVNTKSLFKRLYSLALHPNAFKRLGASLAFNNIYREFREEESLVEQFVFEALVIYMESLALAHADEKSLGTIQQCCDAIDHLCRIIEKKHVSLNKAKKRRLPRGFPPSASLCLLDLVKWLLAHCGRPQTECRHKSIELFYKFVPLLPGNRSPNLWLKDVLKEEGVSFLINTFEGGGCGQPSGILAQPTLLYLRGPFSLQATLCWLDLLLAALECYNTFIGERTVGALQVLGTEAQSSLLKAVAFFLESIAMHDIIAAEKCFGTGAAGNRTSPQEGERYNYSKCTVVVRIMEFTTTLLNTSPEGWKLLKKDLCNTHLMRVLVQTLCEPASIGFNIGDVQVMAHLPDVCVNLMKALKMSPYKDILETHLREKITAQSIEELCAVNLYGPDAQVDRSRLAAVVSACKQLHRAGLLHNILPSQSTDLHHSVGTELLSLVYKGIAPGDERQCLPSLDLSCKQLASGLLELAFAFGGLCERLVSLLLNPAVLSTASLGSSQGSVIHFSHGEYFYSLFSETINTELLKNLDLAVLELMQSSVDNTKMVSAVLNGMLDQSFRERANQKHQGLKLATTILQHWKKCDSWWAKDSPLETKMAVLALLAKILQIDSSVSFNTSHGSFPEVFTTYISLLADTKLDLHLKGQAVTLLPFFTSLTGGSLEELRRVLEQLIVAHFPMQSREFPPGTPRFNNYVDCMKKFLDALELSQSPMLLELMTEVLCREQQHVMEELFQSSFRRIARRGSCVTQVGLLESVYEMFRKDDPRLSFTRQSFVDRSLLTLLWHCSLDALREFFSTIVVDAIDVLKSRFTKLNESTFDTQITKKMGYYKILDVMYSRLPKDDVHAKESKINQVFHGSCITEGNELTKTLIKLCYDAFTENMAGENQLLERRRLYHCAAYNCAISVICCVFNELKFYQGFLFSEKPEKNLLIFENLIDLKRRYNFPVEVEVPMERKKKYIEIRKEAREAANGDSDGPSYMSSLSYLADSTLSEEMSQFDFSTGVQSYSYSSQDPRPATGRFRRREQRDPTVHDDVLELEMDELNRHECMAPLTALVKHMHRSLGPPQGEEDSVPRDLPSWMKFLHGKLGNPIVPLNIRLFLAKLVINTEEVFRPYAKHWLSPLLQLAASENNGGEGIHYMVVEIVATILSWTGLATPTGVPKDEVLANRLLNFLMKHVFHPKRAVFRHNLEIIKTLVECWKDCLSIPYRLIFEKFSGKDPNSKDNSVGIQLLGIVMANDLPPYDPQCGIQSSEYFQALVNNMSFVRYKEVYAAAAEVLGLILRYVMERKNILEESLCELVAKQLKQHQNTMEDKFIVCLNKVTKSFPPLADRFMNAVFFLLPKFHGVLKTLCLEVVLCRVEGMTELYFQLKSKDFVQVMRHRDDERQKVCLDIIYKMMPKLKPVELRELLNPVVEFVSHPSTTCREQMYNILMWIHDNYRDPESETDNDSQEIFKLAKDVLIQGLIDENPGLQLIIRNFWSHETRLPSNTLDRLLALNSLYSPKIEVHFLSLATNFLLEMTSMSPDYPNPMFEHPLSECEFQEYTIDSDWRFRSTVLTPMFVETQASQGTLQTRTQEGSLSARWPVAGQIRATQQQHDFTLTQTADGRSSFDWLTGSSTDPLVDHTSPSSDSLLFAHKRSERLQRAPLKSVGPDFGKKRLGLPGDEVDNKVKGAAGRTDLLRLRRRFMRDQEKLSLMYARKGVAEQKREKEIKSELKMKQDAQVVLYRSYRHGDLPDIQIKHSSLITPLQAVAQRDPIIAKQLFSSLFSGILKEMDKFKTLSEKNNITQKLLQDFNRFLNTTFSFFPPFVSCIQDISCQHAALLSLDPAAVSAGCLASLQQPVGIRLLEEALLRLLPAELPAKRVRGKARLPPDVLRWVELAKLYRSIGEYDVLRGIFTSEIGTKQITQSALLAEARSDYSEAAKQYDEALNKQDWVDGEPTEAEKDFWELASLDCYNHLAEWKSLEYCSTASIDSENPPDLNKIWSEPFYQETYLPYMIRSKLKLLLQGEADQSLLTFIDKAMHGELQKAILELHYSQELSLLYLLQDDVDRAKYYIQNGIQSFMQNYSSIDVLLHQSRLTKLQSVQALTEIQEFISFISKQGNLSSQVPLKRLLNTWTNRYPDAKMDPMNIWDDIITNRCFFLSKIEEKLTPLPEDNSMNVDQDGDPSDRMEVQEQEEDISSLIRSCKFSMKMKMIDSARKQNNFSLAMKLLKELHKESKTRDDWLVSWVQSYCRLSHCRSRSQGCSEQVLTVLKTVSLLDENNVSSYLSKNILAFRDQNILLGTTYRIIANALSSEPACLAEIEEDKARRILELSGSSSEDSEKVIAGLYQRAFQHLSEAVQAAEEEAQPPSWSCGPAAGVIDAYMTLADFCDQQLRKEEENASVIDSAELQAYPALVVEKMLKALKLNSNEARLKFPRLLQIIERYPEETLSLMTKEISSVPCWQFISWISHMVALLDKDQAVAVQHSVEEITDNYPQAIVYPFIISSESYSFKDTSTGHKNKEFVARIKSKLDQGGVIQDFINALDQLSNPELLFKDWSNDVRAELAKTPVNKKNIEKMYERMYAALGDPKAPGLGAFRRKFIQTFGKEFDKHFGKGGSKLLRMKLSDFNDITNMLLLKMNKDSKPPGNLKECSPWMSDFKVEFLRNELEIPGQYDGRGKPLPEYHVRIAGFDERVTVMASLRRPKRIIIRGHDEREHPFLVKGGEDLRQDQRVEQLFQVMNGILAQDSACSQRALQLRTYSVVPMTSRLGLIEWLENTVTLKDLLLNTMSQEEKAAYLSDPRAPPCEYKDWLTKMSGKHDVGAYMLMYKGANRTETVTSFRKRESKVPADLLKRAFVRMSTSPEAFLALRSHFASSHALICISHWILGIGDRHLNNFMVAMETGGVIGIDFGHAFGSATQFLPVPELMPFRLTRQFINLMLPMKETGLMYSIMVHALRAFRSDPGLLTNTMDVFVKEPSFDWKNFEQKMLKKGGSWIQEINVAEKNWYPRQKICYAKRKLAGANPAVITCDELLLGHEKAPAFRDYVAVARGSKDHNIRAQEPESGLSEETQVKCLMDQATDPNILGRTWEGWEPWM

Values after ≈ are worked out from the molar mass of the structure shown. Active and inactive are the calls of the source. The rule behind the calls is not given here.

Turning to `Cc1cc2ncnn2cc1Nc1ncc2c(n1)n(C1CCOCC1)c(=O)n2C` [AZD-7648], in the data set on HCT-116 [1], the CI is 0.79. Moreover, the inhibition in vivo at 100 mg/kg with HL-60 [2] came out at 55.3%; with HL-60 [9], 68.1%. The Activity with HCT-116 [3] is listed as 10.3%; in the data set on HCT-116 [8] it was 0.102%; in the data set with HCT-116 [13], 4.53%; with HCT-116 [14] it was 0.05%; in data set [17], “Non-Toxic”; in data set [18], “Non-Toxic”. The Activity worked out at 2.76% in the data set on HCT-116 [19]; 7.33% in the data set on HCT-116 [23]; 64.46% in the data set with HCT-116 [25]; 7.64% in the data set with HCT-116 [27]; 92.2% in the data set with HCT-116 [28]. Further, in [4], the logP amounted to 1.2. Moreover, the figures for the fraction unbound in data set [5] and in data set [22] were 0.834 and 0.653, respectively. The Tmax in [6] is 0.83 h. Also, the IC50 in the data set on HCT-116 [7] is 35300 nM; in the data set on HCT-116 [15], 19500 nM. In addition, in the data set with HCT-116 [10], the result was Active. Further, the values for the solubility kinetic at 24 h in data set [11] and in data set [20] were 120 µg/mL (≈ 316 µM) and 101 µg/mL (≈ 266 µM), respectively. In data set [12], the AUC(0-inf) amounted to 5240 ng·h/mL. Moreover, the viability at 1 µM was 92.7% with HCT-116 [16] and 82.3% in the data set on HCT-116 [24]. The molecule also displayed a Cmax in [21] of 1500 ng/mL. The molecule also gave an MRT inf in data set [26] of 2.51 h.

For `Cc1cc2ncnn2cc1Nc1ncc2c(n1)C1(CCC1)C(=O)N2C`, in data set [29], the IC50 was determined as 21.4 nM.

As to `Cc1cc2ncnn2cc1Nc1ncc2c(n1)C1(CCC(OCC(F)F)CC1)C(=O)N2C` (stereo unspecified), in data set [29], the IC50 was 16.9 nM.

Take `Cc1cc2ncnn2cc1Nc1ncc2c(n1)C(C)(C)C(=O)N2C`: in data set [29], the half-maximal inhibitory concentration (IC50) came out at 47.9 nM.

The molecule `[2H]C([2H])([2H])N1C(=O)C2(CCOCC2)c2nc(Nc3cn4ncnc4cc3C)ncc21` had an IC50 in data set [29] of 126 nM.

In data set [29], `Cc1cc2ncnn2cc1Nc1ncc2c(n1)N(C1CCOCC1)CC(=O)N2C(C)C` came in with an IC50 of 25.5 nM.

Consider `Cc1cc2ncccc2cc1Nc1ncc2c(n1)C1(CCOCC1)C(=O)N2C`, for which the IC50 in [29] was 10.5 nM.

`CCN1C(=O)C2(CCOCC2)c2nc(Nc3cn4ncnc4cc3C)ncc21` showed an IC50 in data set [29] of 135 nM.

The molecule `Cc1cc2ncnn2cc1Nc1ncc2c(n1)C1(CCOCC1)C(=O)N2C(C)C` returned a 50% inhibitory concentration (IC50) in [29] of 220 nM.

In the case of `Cc1cc2ncnn2cc1Nc1ncc2c(n1)N(C1CCOCC1)CC(=O)N2`, half-maximal inhibition in data set [29] (IC50) was put at 7.06 nM.

`Cc1cc2ncnn2cc1Nc1ncc2c(n1)N(C1CCOCC1)CC(=O)N2C1CC1` displayed an IC50 in data set [29] of 6.76 nM.

Consider `Cc1cc2nccnc2cc1Nc1ncc2c(n1)N(C1CCOCC1)CC(=O)N2C`, for which the IC50 in data set [29] was 3.26 nM.

`Cc1cc2ncccc2cc1Nc1ncc2c(n1)N(C1CCOCC1)CC(=O)N2C`: in [29], the IC50 stood at 6.9 nM.

In data set [29], `CCN1C(=O)CN(C2CCOCC2)c2nc(Nc3cn4ncnc4cc3C)ncc21` registered an IC50 of 3.37 nM.
